Source: US9771372B2, “Compounds useful as S100-inhibitors” (Active Biotech AB, priority 2014, dated 2017)

Biological target: T1, interaction between biotinylated human S100A9 and human RAGE-Fc (Homo sapiens, UniProt P06702)
T1 construct: made in house; host or cells: E. coli BL21(DE3)/pET1120 (pLR757)
T1 sequence (P06702 1-114): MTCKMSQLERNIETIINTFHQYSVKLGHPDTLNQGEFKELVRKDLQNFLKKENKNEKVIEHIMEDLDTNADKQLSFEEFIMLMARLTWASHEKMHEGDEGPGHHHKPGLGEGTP
Assay: AlphaScreen inhibition assay, Biot-hS100A9:hRAGE-Fc (S100A9-RAGE inhibition assay)
Type: binding
Settings: biot-hS100A9 and rhRAGE-Fc, Ca2+ and Zn2+ in buffer
Text: FIG. 1 is a schematic representation of an assay of the inhibition of the interaction between biotinylated human S100A9 and human RAGE-Fc using a small molecule S100A9 binder.
Inhibition Assay, Biot-hS100A9:hRAGE-Fc
The AlphaScreen (Amplified Luminescent Proximity Homogeneous Assay) contains two types of beads, Alpha Donor beads and Acceptor beads (PerkinElmer). Upon laser excitation at 680 nm a photosensitizer in the Donor bead converts ambient oxygen to a more excited singlet state. The singlet oxygen molecule diffuses (maximum 200 nm) to react with a thioxene derivative in the Acceptor bead and generates a chemiluminescence reaction. Fluorophores in the Acceptor bead subsequently emit light at 520-620 nm which can be detected in the EnVision® Multilabel plate Reader (PerkinElmer). The beads are light sensitive and all work with the beads is performed under subdued light conditions or using green filters on light sources (Roscolux Chroma Green #389, Rosco).
In the AlphaScreen Inhibition Assay described here, protein A (Staphylococcus aureus) conjugated Acceptor beads are used together with streptavidin coated Donor beads (Perkin Elmer 6760617M). The Acceptor beads are pre-incubated with Fc-tagged recombinant human RAGE (rhRAGE-Fc) allowing binding of the rhRAGE-Fc to protein A on the beads. Biotinylated human S100A9 (biot-hS100A9) is pre-incubated with the low molecular test compounds. The pre-mixes are then added to the wells of a micro-plate and incubated allowing interaction between biot-hS100A9 and rhRAGE-Fc. Subsequent addition of streptavidin coated Donor beads causes binding of the streptavidin to the biotinylated hS100A9. After an additional incubation the signal is measured.
Without inhibitory compounds, the interaction of biot-hS100A9 to rhRAGE-Fc will bring the Acceptor and Donor beads in close proximity thus generating a high signal. With an inhibitor present the complex will not form resulting in a decreased signal.
The AlphaScreen assay method is used for screening of the inhibitory effect of different compound samples at fixed concentrations or for IC50 determination by varying the compound concentrations. Samples of test compounds and references are prepared from solutions in DMSO. Relevant reference inhibitors and DMSO are used as controls for defined inhibition and non-inhibition, respectively in the assay. The percent inhibition in assay for test compounds and references are calculated by comparing their obtained assay signals with the signal values for the control with only DMSO (no compound).
Assay concentration of biotinylated hS100A9 and rhRAGE-Fc are batch dependent, and are determined and defined by separate cross-titration experiments using this AlphaScreen inhibition method to verify the optimal setup regarding signal strength and achievement of a defined inhibition with relevant reference compounds. The Final assay concentrations of Acceptor and Donor beads are 20 μg/mL.
Assay buffer is prepared by adding CaCl2 and ZnCl2 to HBS-P and is used freshly prepared in the experiment.
Biotin-hS100A9 solution for the experiment is prepared by dilution of appropriate amount of stock solution biot-hS100A9 in assay buffer (with CaCl2 and ZnCl2) and incubation in room temperature for 30 minutes.
rhRAGE-Fc solution for the experiment is prepared by dilution appropriate amount of rhRAGE-Fc stock in assay buffer.
Protein A Acceptor beads are diluted in assay buffer and are added to an equal volume of the prepared diluted rhRAGE-Fc solution. The beads are light sensitive. The vial is covered with aluminum foil and incubated at room temperature in the dark until biot-hS100A9+compound incubation is finished (see below).
Streptavidin-coated Donor beads are diluted in assay buffer. The beads are very light sensitive. The vial is covered with aluminum foil and incubated at room temperature in the dark until use (see below).
Samples of test compounds, appropriate references and DMSO control are diluted in assay buffer. […]

Row | SMILES | IC50
1 | O=C(CCN1CCOCC1)NC1(C(F)(F)F)C(=O)Nc2nc3cc(Cl)c(Cl)cc3n21 (stereo not drawn) [Example 61, N-[10,11-dichloro-4-oxo-3-(trifluoromethyl)-2,5,7-triazatricyclo[6.4.0.0^2,6]dodeca-1(12),6,8,10-tetraen-3-yl]-3-(morpholin-4-yl)propanamide] | 2900 nM
2 | O=C(CCC1CCCC1)NC1(C(F)(F)F)C(=O)Nc2nc3c(C(F)(F)F)cc(Br)cc3n21 (stereo not drawn) [Example 129, N-[11-bromo-4-oxo-3,9-bis(trifluoromethyl)-2,5,7-triazatricyclo[6.4.0.0^2,6]dodeca-1(8),6,9,11-tetraen-3-yl]-3-cyclopentylpropanamide] | 2260 nM
3 | COCC(=O)N1CCC(C(=O)NC2(C(F)(F)F)C(=O)Nc3nc4cc(Cl)c(Cl)cc4n32)CC1 (stereo not drawn) [Example 44, N-[10,11-dichloro-4-oxo-3-(trifluoromethyl)-2,5,7-triazatricyclo[6.4.0.0^2,6]dodeca-1(12),6,8,10-tetraen-3-yl]-1-(2-methoxyacetyl)piperidine-4-carboxamide] | 4700 nM
4 | O=C(CCN1CC(F)(F)C1)NC1(C(F)(F)F)C(=O)Nc2nc3cc(Cl)c(Cl)cc3n21 (stereo not drawn) [Example 104, N-[10,11-dichloro-4-oxo-3-(trifluoromethyl)-2,5,7-triazatricyclo[6.4.0.0^2,6]dodeca-1(8),6,9,11-tetraen-3-yl]-3-(3,3-difluoroazetidin-1-yl)propanamide] | 4020 nM
5 | O=C(CCC1CCCC1)NC1(C(F)(F)F)C(=O)Nc2nc3c(-c4ccccc4O)cccc3n21 (stereo not drawn) [Example 198, 3-cyclopentyl-N-[9-(2-hydroxyphenyl)-4-oxo-3-(trifluoromethyl)-2,5,7-triazatricyclo[6.4.0.0^2,6]dodeca-1(12),6,8,10-tetraen-3-yl]propanamide] | 1970 nM
6 | O=C(CC1CCCCC1)NC1(C(F)(F)F)C(=O)Nc2nc3cc(F)c(F)cc3n21 (stereo not drawn) [Example 74, 2-cyclohexyl-N-[10,11-difluoro-4-oxo-3-(trifluoromethyl)-2,5,7-triazatricyclo[6.4.0.0^2,6]-dodeca-1(8),6,9,11-tetraen-3-yl]acetamide] | 3600 nM
7 | CN(C)c1cccc(C(=O)NC2(C(F)(F)F)C(=O)Nc3nc4cc(Cl)c(Cl)cc4n32)n1 (stereo not drawn) [Example 65, N-[10,11-dichloro-4-oxo-3-(trifluoromethyl)-2,5,7-triazatricyclo[6.4.0.0^2,6]dodeca-1(12),6,8,10-tetraen-3-yl]-6-(dimethylamino)pyridine-2-carboxamide] | 2200 nM
8 | CCNc1cccc(C(=O)NC2(C(F)(F)F)C(=O)Nc3nc4cc(C)c(C)cc4n32)n1 (stereo not drawn) [Example 67, N-[10,11-dimethyl-4-oxo-3-(trifluoromethyl)-2,5,7-triazatricyclo[6.4.0.0^2,6]dodeca-1(12),6,8,10-tetraen-3-yl]-6-(ethylamino)pyridine-2-carboxamide] | 2000 nM
9 | O=C(NC1(C(F)(F)F)C(=O)Nc2nc3cc(Cl)c(Cl)cc3n21)c1cc(Cl)cc(Cl)c1 (stereo not drawn) [Example 57, 3,5-dichloro-N-[10,11-dichloro-4-oxo-3-(trifluoromethyl)-2,5,7-triazatricyclo-[6.4.0.0^2,6]dodeca-1(12),6,8,10-tetraen-3-yl]benzamide] | 2800 nM

Now those with a lower IC50, led by results:

Row | IC50 | SMILES
10 | 1610 nM | O=C(CCC1(O)CCCC1)NC1(C(F)(F)F)C(=O)Nc2nc3cc(Cl)c(Cl)cc3n21 (stereo not drawn) [Example 88, N-[10,11-dichloro-4-oxo-3-(trifluoromethyl)-2,5,7-triazatricyclo[6.4.0.0^2,6]dodeca-1(8),6,9,11-tetraen-3-yl]-3-(1-hydroxycyclopentyl)propanamide]
11 | 1270 nM | COCCNc1nc(C(=O)NC2(C(F)(F)F)C(=O)Nc3nc4c(C#N)c(Cl)ccc4n32)cs1 (stereo not drawn) [Example 139, N-[10-chloro-9-cyano-4-oxo-3-(trifluoromethyl)-2,5,7-triazatricyclo[6.4.0.0^2,6]dodeca-1(8),6,9,11-tetraen-3-yl]-2-[(2-methoxyethyl)amino]-1,3-thiazole-4-carboxamide]
12 | 230 nM | O=C(CCC1CCCC1)NC1(C(F)(F)F)C(=O)Nc2nc3cc(Cl)c(Cl)cc3n21 (single isomer, unassigned) [Example 219b, 3-cyclopentyl-N-[10,11-dichloro-4-oxo-3-(trifluoromethyl)-2,5,7-triazatricyclo[6.4.0.0^2,6]dodeca-1(12),6,8,10-tetraen-3-yl]propanamide]
13 | 1630 nM | O=C(CCC1CCCC1)NC1(C(F)(F)F)C(=O)Nc2nc3c(F)c(Br)ccc3n21 (stereo not drawn) [Example 177, N-[10-bromo-9-fluoro-4-oxo-3-(trifluoromethyl)-2,5,7-triazatricyclo[6.4.0.0^2,6]dodeca-1(12),6,8,10-tetraen-3-yl]-3-cyclopentylpropanamide]
14 | 1620 nM | COCCNc1cccc(C(=O)NC2(C(F)(F)F)C(=O)Nc3nc4cc(C)c(C)cc4n32)n1 (stereo not drawn) [Example 111, N-[10,11-dimethyl-4-oxo-3-(trifluoromethyl)-2,5,7-triazatricyclo[6.4.0.0^2,6]dodeca-1(8),6,9,11-tetraen-3-yl]-6-[(2-methoxyethyl)amino]pyridine-2-carboxamide]
15 | 1700 nM | O=C(NC1(C(F)(F)F)C(=O)Nc2nc3cc(Cl)c(Cl)cc3n21)C1CCCCC1 (stereo not drawn) [Example 55, N-[10,11-dichloro-4-oxo-3-(trifluoromethyl)-2,5,7-triazatricyclo[6.4.0.0^2,6]dodeca-1(12),6,8,10-tetraen-3-yl]cyclohexanecarboxamide]
16 | 1000 nM | O=C(NC1(C(F)(F)F)C(=O)Nc2nc3cc(Cl)c(Cl)cc3n21)c1ccccc1 (stereo not drawn) [Example 38, N-[10,11-dichloro-4-oxo-3-(trifluoromethyl)-2,5,7-triazatricyclo[6.4.0.0^2,6]dodeca-1(8),6,9,11-tetraen-3-yl]benzamide]
17 | 850 nM | O=C(CCC1CCCC1)NC1(C(F)(F)F)C(=O)Nc2nc3c(-c4ccc(Cl)cc4)cccc3n21 (stereo not drawn) [Example 201, N-[9-(4-chlorophenyl)-4-oxo-3-(trifluoromethyl)-2,5,7-triazatricyclo[6.4.0.0^2,6]dodeca-1(12),6,8,10-tetraen-3-yl]-3-cyclopentylpropanamide]
18 | 1430 nM | O=C(CCC1CCCC1)NC1(C(F)(F)F)C(=O)Nc2nc3c(NS(=O)(=O)C4CC4)cccc3n21 (stereo not drawn) [Example 165, 3-cyclopentyl-N-[9-cyclopropanesulfonamido-4-oxo-3-(trifluoromethyl)-2,5,7-triazatricyclo[6.4.0.0^2,6]dodeca-1(12),6,8,10-tetraen-3-yl]propanamide]
19 | 840 nM | O=C(CCC1CCCC1)NC1(C(F)(F)F)C(=O)Nc2nc3c(C(=O)O)cccc3n21 (single isomer, unassigned) [Example 231b, 3-(3-cyclopentylpropanamido)-4-oxo-3-(trifluoromethyl)-2,5,7-triazatricyclo[6.4.0.0^2,6]dodeca-1(12),6,8,10-tetraene-9-carboxylic acid]
20 | 660 nM | O=C(CCC1CCCC1)NC1(C(F)(F)F)C(=O)Nc2nc3c(C(=O)O)cccc3n21 (single isomer, unassigned) [Example 231a, 3-(3-cyclopentylpropanamido)-4-oxo-3-(trifluoromethyl)-2,5,7-triazatricyclo[6.4.0.0^2,6]dodeca-1(12),6,8,10-tetraene-9-carboxylic acid]
21 | 260 nM | COc1ccc(-c2cccc3c2nc2n3C(NC(=O)CCC3CCCC3)(C(F)(F)F)C(=O)N2)cc1 (single isomer, unassigned) [Example 230a, 3-cyclopentyl-N-[9-(4-methoxyphenyl)-4-oxo-3-(trifluoromethyl)-2,5,7-triazatricyclo[6.4.0.0^2,6]dodeca-1(12),6,8,10-tetraen-3-yl]propanamide]
